Data: ChEMBL document CHEMBL3045635, “Synthesis and in vitro antimicrobial evaluation of novel 2-amino-6-(phenylthio)-4-(2-(phenylthio)quinolin-3-yl)pyridine-3,5-dicarbonitriles” (2013)
Converted amounts (≈) assume the structure as drawn.

What was measured:
Assay type in all cases: functional
Clostridium tetani = assay: Antibacterial activity against Clostridium tetani MTCC 449 after 24 hr by broth microdilution method; conditions: MTCC 449, 24 h
Streptococcus pneumoniae = assay: Antibacterial activity against Streptococcus pneumoniae MTCC 1936 after 24 hr by broth microdilution method; conditions: MTCC 1936, 24 h
Vibrio cholerae = assay: Antibacterial activity against Vibrio cholerae MTCC 3906 after 24 hr by broth microdilution method; conditions: MTCC 3906, 24 h
Salmonella typhi = assay: Antibacterial activity against Salmonella enterica subsp. enterica serovar Typhi MTCC 98 after 24 hr by broth microdilution method; conditions: MTCC 98, 24 h
Escherichia coli = assay: Antibacterial activity against Escherichia coli MTCC 443 after 24 hr by broth microdilution method; conditions: MTCC 443, 24 h
Candida albicans = assay: Antifungal activity against Candida albicans MTCC 227 after 48 hr by broth microdilution method; conditions: MTCC 227, 48 h
Bacillus subtilis = assay: Antibacterial activity against Bacillus subtilis MTCC 441 after 24 hr by broth microdilution method; conditions: MTCC 441, 24 h
Aspergillus fumigatus = assay: Antifungal activity against Aspergillus fumigatus MTCC 3008 after 48 hr by broth microdilution method; conditions: MTCC 3008, 48 h

In the case of `Cc1ccc(Sc2nc(N)c(C#N)c(-c3cc4ccccc4nc3Sc3ccc(Cl)cc3)c2C#N)cc1`, the MIC (Clostridium tetani) is reported as 250 µg/mL (≈ 466 µM), the MIC (Streptococcus pneumoniae) is reported as 200 µg/mL (≈ 373 µM) and the MIC (Vibrio cholerae) is reported as 200 µg/mL (≈ 373 µM). The MIC (Salmonella typhi) was 100 µg/mL (≈ 187 µM), the MIC (Escherichia coli) was 62.5 µg/mL (≈ 117 µM) and the MIC (Candida albicans) was 250 µg/mL (≈ 466 µM). The MIC (Bacillus subtilis) was 100 µg/mL (≈ 187 µM) and the MIC (Aspergillus fumigatus) was > 1000 µg/mL.

Compound `Cc1ccc(Sc2nc3ccccc3cc2-c2c(C#N)c(N)nc(Sc3ccc(Cl)cc3)c2C#N)cc1` has an MIC (Clostridium tetani) of 100 µg/mL (≈ 187 µM), an MIC (Streptococcus pneumoniae) of 250 µg/mL (≈ 466 µM) and an MIC (Vibrio cholerae) of 200 µg/mL (≈ 373 µM). For the same compound, the MIC (Salmonella typhi) was 200 µg/mL (≈ 373 µM), the MIC (Escherichia coli) was 200 µg/mL (≈ 373 µM) and the MIC (Candida albicans) was > 1000 µg/mL. The MIC (Bacillus subtilis) was 200 µg/mL (≈ 373 µM) and the MIC (Aspergillus fumigatus) was > 1000 µg/mL.

Work on `Cc1ccc2nc(Sc3ccccc3)c(-c3c(C#N)c(N)nc(Sc4ccc(Cl)cc4)c3C#N)cc2c1` yielded an MIC (Clostridium tetani) of 200 µg/mL (≈ 373 µM), an MIC (Streptococcus pneumoniae) of 500 µg/mL (≈ 933 µM) and an MIC (Vibrio cholerae) of 200 µg/mL (≈ 373 µM). The MIC (Salmonella typhi) was 100 µg/mL (≈ 187 µM), the MIC (Escherichia coli) was 50 µg/mL (≈ 93.3 µM) and the MIC (Candida albicans) was > 1000 µg/mL. For the same compound, the MIC (Bacillus subtilis) was 500 µg/mL (≈ 933 µM) and the MIC (Aspergillus fumigatus) was 250 µg/mL (≈ 466 µM).

`Cc1ccc2nc(Sc3ccccc3)c(C=O)cc2c1` gave an MIC (Clostridium tetani) of 250 µg/mL (≈ 895 µM), an MIC (Streptococcus pneumoniae) of 500 µg/mL (≈ 1790 µM) and an MIC (Vibrio cholerae) of 250 µg/mL (≈ 895 µM). For the same compound, the MIC (Salmonella typhi) was 200 µg/mL (≈ 716 µM), the MIC (Escherichia coli) was 200 µg/mL (≈ 716 µM) and the MIC (Candida albicans) was > 1000 µg/mL. For the same compound, the MIC (Bacillus subtilis) was 500 µg/mL (≈ 1790 µM) and the MIC (Aspergillus fumigatus) was > 1000 µg/mL.

`Cc1ccc2nc(Sc3ccccc3)c(-c3c(C#N)c(N)nc(Sc4ccccc4)c3C#N)cc2c1` was tested, and the MIC (Clostridium tetani) was 250 µg/mL (≈ 498 µM), the MIC (Streptococcus pneumoniae) was 250 µg/mL (≈ 498 µM) and the MIC (Vibrio cholerae) was 250 µg/mL (≈ 498 µM). It also gave an MIC (Salmonella typhi) of 200 µg/mL (≈ 399 µM), an MIC (Escherichia coli) of 200 µg/mL (≈ 399 µM) and an MIC (Candida albicans) of 1000 µg/mL (≈ 1990 µM). The MIC (Bacillus subtilis) was 250 µg/mL (≈ 498 µM) and the MIC (Aspergillus fumigatus) was 250 µg/mL (≈ 498 µM).

`Cc1ccc(Sc2nc3ccccc3cc2-c2c(C#N)c(N)nc(Sc3ccc(C)cc3)c2C#N)cc1` gave an MIC (Clostridium tetani) of 250 µg/mL (≈ 485 µM), an MIC (Streptococcus pneumoniae) of 200 µg/mL (≈ 388 µM) and an MIC (Vibrio cholerae) of 200 µg/mL (≈ 388 µM). For the same compound, the MIC (Salmonella typhi) was 250 µg/mL (≈ 485 µM), the MIC (Escherichia coli) was 250 µg/mL (≈ 485 µM) and the MIC (Candida albicans) was 1000 µg/mL (≈ 1940 µM). For the same compound, the MIC (Bacillus subtilis) was 250 µg/mL (≈ 485 µM) and the MIC (Aspergillus fumigatus) was 1000 µg/mL (≈ 1940 µM).

`Cc1ccc(Sc2nc(N)c(C#N)c(-c3cc4cc(C)ccc4nc3Sc3ccccc3)c2C#N)cc1` was tested, and the MIC (Clostridium tetani) was 200 µg/mL (≈ 388 µM), the MIC (Streptococcus pneumoniae) was 250 µg/mL (≈ 485 µM) and the MIC (Vibrio cholerae) was 500 µg/mL (≈ 970 µM). For the same compound, the MIC (Salmonella typhi) was 100 µg/mL (≈ 194 µM), the MIC (Escherichia coli) was 250 µg/mL (≈ 485 µM) and the MIC (Candida albicans) was 1000 µg/mL (≈ 1940 µM). It also gave an MIC (Bacillus subtilis) of 500 µg/mL (≈ 970 µM) and an MIC (Aspergillus fumigatus) of 500 µg/mL (≈ 970 µM).

Work on `N#Cc1c(N)nc(Sc2ccc(Cl)cc2)c(C#N)c1-c1cc2ccccc2nc1Sc1ccccc1` yielded an MIC (Clostridium tetani) of 200 µg/mL (≈ 383 µM), an MIC (Streptococcus pneumoniae) of 500 µg/mL (≈ 958 µM) and an MIC (Vibrio cholerae) of 250 µg/mL (≈ 479 µM). It also gave an MIC (Salmonella typhi) of 250 µg/mL (≈ 479 µM), an MIC (Escherichia coli) of 250 µg/mL (≈ 479 µM) and an MIC (Candida albicans) of 1000 µg/mL (≈ 1920 µM). It also gave an MIC (Bacillus subtilis) of 250 µg/mL (≈ 479 µM) and an MIC (Aspergillus fumigatus) of 1000 µg/mL (≈ 1920 µM).

With `Cc1ccc(Sc2nc3ccccc3cc2-c2c(C#N)c(N)nc(Sc3ccccc3)c2C#N)cc1` the MIC (Clostridium tetani) was 200 µg/mL (≈ 399 µM), the MIC (Streptococcus pneumoniae) was 250 µg/mL (≈ 498 µM) and the MIC (Vibrio cholerae) was 200 µg/mL (≈ 399 µM). It also gave an MIC (Salmonella typhi) of 125 µg/mL (≈ 249 µM), an MIC (Escherichia coli) of 200 µg/mL (≈ 399 µM) and an MIC (Candida albicans) of 500 µg/mL (≈ 997 µM). The MIC (Bacillus subtilis) was 250 µg/mL (≈ 498 µM) and the MIC (Aspergillus fumigatus) was > 1000 µg/mL.

`Cc1ccc(Sc2nc(N)c(C#N)c(-c3cc4cc(C)ccc4nc3Sc3ccc(Cl)cc3)c2C#N)cc1` was tested, and the MIC (Clostridium tetani) was 250 µg/mL (≈ 454 µM), the MIC (Streptococcus pneumoniae) was 100 µg/mL (≈ 182 µM) and the MIC (Vibrio cholerae) was 250 µg/mL (≈ 454 µM). The MIC (Salmonella typhi) was 200 µg/mL (≈ 364 µM), the MIC (Escherichia coli) was 200 µg/mL (≈ 364 µM) and the MIC (Candida albicans) was > 1000 µg/mL. It also gave an MIC (Bacillus subtilis) of 100 µg/mL (≈ 182 µM) and an MIC (Aspergillus fumigatus) of 250 µg/mL (≈ 454 µM).

For `O=Cc1cc2ccccc2nc1Sc1ccc(Cl)cc1`, the MIC (Clostridium tetani) was 200 µg/mL (≈ 667 µM), the MIC (Streptococcus pneumoniae) was 100 µg/mL (≈ 334 µM) and the MIC (Vibrio cholerae) was 200 µg/mL (≈ 667 µM). The MIC (Salmonella typhi) was 250 µg/mL (≈ 834 µM), the MIC (Escherichia coli) was 250 µg/mL (≈ 834 µM) and the MIC (Candida albicans) was 1000 µg/mL (≈ 3340 µM). The MIC (Bacillus subtilis) was 250 µg/mL (≈ 834 µM) and the MIC (Aspergillus fumigatus) was > 1000 µg/mL.

Work on `COC1=CC(=O)C[C@@H](C)[C@]12Oc1c(Cl)c(OC)cc(OC)c1C2=O` [GRISEOFULVIN] yielded an MIC (Candida albicans) of 500 µg/mL (≈ 1420 µM) and an MIC (Aspergillus fumigatus) of 100 µg/mL (≈ 283 µM).

Work on `Cc1ccc(Sc2nc(N)c(C#N)c(-c3cc4ccccc4nc3Sc3ccccc3)c2C#N)cc1` yielded an MIC (Clostridium tetani) of 250 µg/mL (≈ 498 µM), an MIC (Streptococcus pneumoniae) of 250 µg/mL (≈ 498 µM) and an MIC (Vibrio cholerae) of 250 µg/mL (≈ 498 µM). The MIC (Salmonella typhi) was 125 µg/mL (≈ 249 µM), the MIC (Escherichia coli) was 100 µg/mL (≈ 199 µM) and the MIC (Candida albicans) was 1000 µg/mL (≈ 1990 µM). For the same compound, the MIC (Bacillus subtilis) was 200 µg/mL (≈ 399 µM) and the MIC (Aspergillus fumigatus) was 250 µg/mL (≈ 498 µM).

With `CCn1cc(C(=O)O)c(=O)c2cc(F)c(N3CCNCC3)cc21` [NORFLOXACIN] the MIC (Clostridium tetani) was 50 µg/mL (≈ 157 µM), the MIC (Streptococcus pneumoniae) was 10 µg/mL (≈ 31.3 µM) and the MIC (Vibrio cholerae) was 10 µg/mL (≈ 31.3 µM). The MIC (Salmonella typhi) was 10 µg/mL (≈ 31.3 µM), the MIC (Escherichia coli) was 10 µg/mL (≈ 31.3 µM) and the MIC (Bacillus subtilis) was 100 µg/mL (≈ 313 µM).
